{
  "source": "patent US6939558B2",
  "about": "“Intravaginal devices containing progesterone for estrus synchronization and related proceses” (Akzo Nobel N.V., priority 2001, dated 2005)",
  "origin": "cited, not measured here",
  "system": "bovines",
  "settings": "1 mg Estradiol Benzoate 24 hours after removal of the device",
  "data": [
    {"smiles": "C[C@]12CC[C@@H]3c4ccc(OC(=O)c5ccccc5)cc4CC[C@H]3[C@@H]1CC[C@@H]2O", "note": "[Estradiol Benzoate]", "values": [
      {"measurement": "ovulation after removal of the device", "result": 70, "unit": "h"}
    ]}
  ]
}
